Test results published in US20210323981A1, “FREE AMINO COMPOUNDS FOR THE TREATMENT AND PROPHYLAXIS OF BACTERIAL INFECTION” (Hoffmann-La Roche Inc., priority 2018, published 2021).

Assays:
Format in all cases: cell-based
A. baumannii (ATCC17978) = assay: 50% growth inhibitory concentration (IC50) determination assay, A. baumannii; details: Acinetobacter baumannii, growth inhibition, Iso-Sensitest broth, OD 600 nm over 16 h, <0.098 = detection limit
Protocol: (§1) The in vitro antimicrobial activity of the compounds against S. aureus (ATCC29213), K. pneumoniae (ATCC10031), and A. baumannii (ATCC17978), was determined according to the following procedure: The assay used a 10-points Iso-Sensitest broth medium to measure quantitatively the in vitro activity of the compounds against S. aureus ATCC29213, K. pneumoniae ATCC 10031, and A. baumannii ATCC17978. Stock compounds in DMSO were serially two-fold diluted (range from 50 to 0.097 μM final concentration) in 384 wells microtiter plates and inoculated with 49 μL the bacterial suspension in Iso-Sensitest broth medium to have a final cell concentration of ˜5×10^5 CFU/mL in a final volume/well of 50 μL/well. Microtiter plates were incubated at 35±2° C. Bacterial cell growth was determined with the measurement of optical density at k=600 nm each 20 minutes over a time course of 16 h. Growth inhibition was calculated during the logarithmic growth of the bacterial cells with determination of the concentration inhibiting 50% (IC50) of the growth.

[1] = test system: K. pneumoniae (ATCC10031); assay: 50% growth inhibitory concentration (IC50) determination assay, K. pneumoniae; details: Klebsiella pneumoniae, growth inhibition, Iso-Sensitest broth, OD 600 nm over 16 h, <0.098 μM = detection limit
Protocol: as §1

S. aureus (ATCC29213) = assay: 50% growth inhibitory concentration (IC50) determination assay, S. aureus; details: Staphylococcus aureus, growth inhibition, Iso-Sensitest broth, OD 600 nm over 16 h, <0.098 μM = detection limit
Protocol: as §1

Structure (SMILES)	IC50 (A. baumannii (ATCC17978))	IC50 [1]	IC50 (S. aureus (ATCC29213))
CNc1cc(F)c(F)c2c1[nH]c1ncc(-c3cnc4c(c3)c(=O)c(C(=O)O)cn4C)c(N3CCC4(C[C@@H]4N)C3)c12 (mixture of isomers) [Example 2.01, Trans-6-[4-(2-amino-5-azaspiro[2.4]heptan-5-yl)-5,6-difluoro-8-(methylamino)-9H-pyrido[2,3-b]indol-3-yl]-1-methyl-4-oxo-1,8-naphthyridine-3-carboxylic acid]	0.155 µM	< 0.098 µM	< 0.098 µM
CNc1cc(F)c(F)c2c1[nH]c1ncc(-c3cnc4c(c3)c(=O)c(C(=O)O)cn4C)c(N3CCC4(C[C@H]4N)C3)c12 (mixture of isomers) [Example 2.02, Cis-6-[4-(2-amino-5-azaspiro[2.4]heptan-5-yl)-5,6-difluoro-8-(methylamino)-9H-pyrido[2,3-b]indol-3-yl]-1-methyl-4-oxo-1,8-naphthyridine-3-carboxylic acid]	0.261 µM	< 0.098 µM	< 0.098 µM
CNc1cc(F)c(F)c2c1[nH]c1ncc(-c3cnc4c(c3)c(=O)c(C(=O)O)cn4C)c(N3CC[C@H]4CN(CCCN)C[C@H]43)c12 (relative stereo) [Example 1.07, cis-6-[5,6-Difluoro-8-(methylamino)-4-[5-(3-aminopropyl)-2,3,3a,4,6,6a-hexahydropyrrolo[2,3-c]pyrrol-1-yl]-9H-pyrido[2,3-b]indol-3-yl]-1-methyl-4-oxo-1,8-naphthyridine-3-carboxylic acid]	4.79 µM	0.429 µM	1.67 µM
CNc1cc(F)c(C#N)c2c1[nH]c1ncc(-c3cnc4c(c3)c(=O)c(C(=O)O)cn4C)c(N3C[C@H]4CC[C@@H](N)[C@H]4C3)c12 (relative stereo) [Example 1.13, 6-[5-Cyano-6-fluoro-8-(methylamino)-4-[rel-(3aR,4R,6aS)-4-amino-3,3a,4,5,6,6a-hexahydro-1H-cyclopenta[c]pyrrol-2-yl]-9H-pyrido[2,3-b]indol-3-yl]-1-methyl-4-oxo-1,8-naphthyridine-3-carboxylic acid]	2.79 µM	0.128 µM	0.151 µM
CNc1cc(F)c(F)c2c1[nH]c1ncc(-c3cnc4c(c3)c(=O)c(C(=O)O)cn4C)c(N3CCC(N)(C(F)(F)F)C3)c12 (centres unmarked) [Example 1.05, 6-(4-(3-Amino-3-(trifluoromethyl)pyrrolidin-1-yl)-5,6-difluoro-8-(methylamino)-9H-pyrido[2,3-b]indol-3-yl)-1-methyl-4-oxo-1,4-dihydro-1,8-naphthyridine-3-carboxylic acid]			< 0.098 µM
CNc1cc(F)c(F)c2c1[nH]c1ncc(-c3cnc4c(c3)c(=O)c(C(=O)O)cn4C)c(N3CCC(F)(CN)C3)c12 (centres unmarked) [Example 1.16, 6-[4-[3-(Aminomethyl)-3-fluoro-pyrrolidin-1-yl]-5,6-difluoro-8-(methylamino)-9H-pyrido[2,3-b]indol-3-yl]-1-methyl-4-oxo-1,8-naphthyridine-3-carboxylic acid]		< 0.098 µM	< 0.098 µM
CNc1cc(F)c(F)c2c1[nH]c1ncc(-c3cnc4c(c3)c(=O)c(C(=O)O)cn4C)c(N3CCC[C@@]4(C[C@H]4N)C3)c12 [Example 6.01, 6-[4-[(2R,3R)-2-Amino-5-azaspiro[2.5]octan-5-yl]-5,6-difluoro-8-(methylamino)-9H-pyrido[2,3-b]indol-3-yl]-1-methyl-4-oxo-1,8-naphthyridine-3-carboxylic acid]			< 0.098 µM
CNc1cc(F)c(F)c2c1[nH]c1ncc(-c3cnc4c(c3)c(=O)c(C(=O)O)cn4C)c(N3CCC[C@]4(C[C@@H]4N)C3)c12 [Example 6.02, 6-[4-[(2S,3S)-2-amino-5-azaspiro[2.5]octan-5-yl]-5,6-difluoro-8-(methylamino)-9H-pyrido[2,3-b]indol-3-yl]-1-methyl-4-oxo-1,8-naphthyridine-3-carboxylic acid]			< 0.098 µM
